According to patent publication US4163051A, “Streptomycetal antibiotic” (Beecham Group Limited, priority 1975, dated 1979):
Counter-ions that a name gives are not always drawn.

Assays:
[1] = test system: Staphylococcus aureus Russell; experiment: activity in combination with ampicillin and cephaloridine (synergy, MIC); assay type: cell-based
Procedure: (§1) The antibacterial activity of the material produced as above was determined by the microtitre method using the overnight inoculum of the test organism at 0.2% concentration. The synergistic activity of the di-sodium salt of MM 17880 in combination with ampicillin and with cephaloridine against Klebsiella aerogenes and Staphylococcus aureus Russell are shown in Table 3.

Klebsiella aerogenes A [2] = experiment: as above; assay type: cell-based
Procedure: as §1

Klebsiella aerogenes = experiment: hole in plate method on agar seeded with Klebsiella aerogenes (arbitrary units); assay type: cell-based; settings: final solid of Example 1, sodium salt
Procedure: 300 ml. of 10% Pluronic L81 in soya-bean oil was added to prevent foaming. The fermentation was harvested after 48 hours and clarified by centrifugation. The clarified brew was arbitarily assigned an activity of 340 units/ml when assayed by the conventional hole in plate method on agar seeded with Klebsiella aerogenes.

[3] = test system: Streptococcus pyrogenes CN10; experiment: antibacterial activity (MIC), microtitre method, heavy inoculum; assay type: cell-based; settings: overnight inoculum at 0.2%
Procedure: as §1
(§2) Microtitre - heavy inoculum

E. coli 10418 = experiment: as above; assay type: cell-based; settings: overnight inoculum at 0.2%
Procedure: as §1, §2

Proteus mirabilis 13 = experiment: as above; assay type: cell-based; settings: overnight inoculum at 0.2%
Procedure: as §1, §2

[4] = test system: Staphylococcus aureus Russell; experiment: as above; assay type: cell-based; settings: overnight inoculum at 0.2%
Procedure: as §1, §2

[5] = test system: Citrobacter freundii Mantio; experiment: as above; assay type: cell-based; settings: overnight inoculum at 0.2%
Procedure: as §1, §2

Proteus morganii 1580 = experiment: as above; assay type: cell-based; settings: overnight inoculum at 0.2%
Procedure: as §1, §2

Klebsiella aerogenes A [6] = experiment: as above; assay type: cell-based; settings: overnight inoculum at 0.2%
Procedure: as §1, §2

Streptococcus faccalis I = experiment: as above; assay type: cell-based; settings: overnight inoculum at 0.2%
Procedure: as §1, §2

Bacillus subtilis = experiment: as above; assay type: cell-based; settings: overnight inoculum at 0.2%
Procedure: as §1, §2

Proteus vulgaris W090 = experiment: as above; assay type: cell-based; settings: overnight inoculum at 0.2%
Procedure: as §1, §2

[7] = test system: Klebsiella aerogenes Ba95; experiment: as above; assay type: cell-based; settings: overnight inoculum at 0.2%
Procedure: as §1, §2

Serratia marcescens US1 = experiment: as above; assay type: cell-based; settings: overnight inoculum at 0.2%
Procedure: as §1, §2

Pseudomonas aeruginosa A = experiment: as above; assay type: cell-based; settings: overnight inoculum at 0.2%
Procedure: as §1, §2

Proteus retigeri VM16 = experiment: as above; assay type: cell-based; settings: overnight inoculum at 0.2%
Procedure: as §1, §2

E. coli JT4 = experiment: as above; assay type: cell-based; settings: overnight inoculum at 0.2%
Procedure: as §1, §2

[8] = test system: Staphylococcus aureus Oxford; experiment: as above; assay type: cell-based; settings: overnight inoculum at 0.2%
Procedure: as §1, §2

[9] = test system: Salmonella typhimurium CT10; experiment: as above; assay type: cell-based; settings: overnight inoculum at 0.2%
Procedure: as §1, §2

[10] = stability of salts and unsalted acid; assay type: physicochemical; settings: salts vs unsalted acid; in solution
[11] = test system: certain β-lactamase producing strains of Staphylococcus aureus and Klebsiella aerogenes; experiment: synergy with β-lactam antibiotics (general statement); assay type: cell-based; settings: substantially pure; with ampicillin, amoxycillin and the like
[12] = target: T1, β-lactamase from E. coli JT4 (Escherichia coli, UniProt P62593); experiment: β-lactamase inhibition by the method of Belgian Pat. No. 827331; assay type: biochemical; settings: read-out: I50 (converted)
T1 construct: β-lactamase from E. coli JT4; endogenous in cells; host or cells: E. coli JT4

[13] = test system: certain gram-positive and gram-negative organisms; experiment: antibacterial activity, microtitre method (general statement); assay type: cell-based; settings: substantially pure
From the text: It is likely that MM 17880 has a molecular weight between 300 and 500. […] Thus MM 17880 has the molecular formula C11-14 […]-23 O8-11 N2 S2.

T1 sequence (P62593 24-286 limits assumed): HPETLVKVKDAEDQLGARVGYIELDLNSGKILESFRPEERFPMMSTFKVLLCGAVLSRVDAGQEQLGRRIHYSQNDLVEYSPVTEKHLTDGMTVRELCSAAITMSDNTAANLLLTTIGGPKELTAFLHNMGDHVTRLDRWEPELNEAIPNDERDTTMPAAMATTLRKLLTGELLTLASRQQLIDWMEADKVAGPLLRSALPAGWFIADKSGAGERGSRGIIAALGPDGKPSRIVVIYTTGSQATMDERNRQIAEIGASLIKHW

Which MIC [1] does the source give for `CC1(C)S[C@@H]2[C@H](NC(=O)[C@H](N)c3ccccc3)C(=O)N2[C@H]1C(=O)O` [Ampicillin, ampicillin] here?
Its MIC is 500 µg/mL.

What about the MIC (Klebsiella aerogenes A [2]) of the same compound?
Its MIC is 250 µg/mL.

With `O=C(Cc1cccs1)N[C@@H]1C(=O)N2C(C(=O)[O-])=C(C[n+]3ccccc3)CS[C@H]12` [Cephaloridine, cephaloridine] as the compound, how does the MIC ([1]; compound alone) read?
The MIC was 1.25 µg/mL.

And the MIC (Klebsiella aerogenes A [2]; compound alone)?
The MIC was 5.0 µg/mL.

Which “activity (assayed, arbitrary units)” value (Klebsiella aerogenes) does the source give for `CC(=O)NCCSC1=C(C(=O)O)N2C(=O)C(C(C)OS(=O)(=O)O)C2C1` (stereo not shown) [MM 17880] here?
The value was 16,000 units/mg.

What about the MIC [3] of the same compound?
Its MIC is < 0.01 µg/mL.

What about the MIC (E. coli 10418) of the same compound?
Its MIC is 0.1 µg/mL.

What about the MIC (Proteus mirabilis 13) of the same compound?
The MIC was 1.6 µg/mL.

What about the MIC [4] of the same compound?
The MIC was 0.4 µg/mL.

What about the MIC [5] of the same compound?
Its MIC is 3.1 µg/mL.

What about the MIC (Proteus morganii 1580) of the same compound?
Its MIC is 1.6 µg/mL.

What about the MIC (Klebsiella aerogenes A [6]) of the same compound?
Its MIC is 0.8 µg/mL.

And the MIC (Streptococcus faccalis I)?
The MIC was 6.2 µg/mL.

What about the MIC (Bacillus subtilis) of the same compound?
The MIC was 0.2 µg/mL.

What about the MIC (Proteus vulgaris W090) of the same compound?
The MIC was 0.2 µg/mL.

And the MIC [7]?
Its MIC is 12.5 µg/mL.

What about the MIC (Serratia marcescens US1) of the same compound?
Its MIC is 0.4 µg/mL.

What about the MIC (Pseudomonas aeruginosa A) of the same compound?
The MIC was > 50 µg/mL.

What about the MIC (Proteus retigeri VM16) of the same compound?
Its MIC is 0.2 µg/mL.

What about the MIC (E. coli JT4) of the same compound?
The MIC was 3.1 µg/mL.

What about the MIC [8] of the same compound?
Its MIC is 0.4 µg/mL.

What about the MIC [9] of the same compound?
Its MIC is 0.2 µg/mL.

What about the stability [10] of the same compound?
The stability was “tends to decompose in solution”.

What about the MIC [1] of the same compound?
The MIC was 3.1 µg/mL.

What about the MIC (Klebsiella aerogenes A [2]) of the same compound?
The MIC was 0.2 µg/mL.

With `CC(=O)NCCSC1=C(C(=O)O)N2C(=O)C(C(C)OS(=O)(=O)O)C2C1` (stereo not shown) [di-sodium salt of MM 17880] as the compound, how does the “synergy with β-lactam antibiotics” value [11] read?
The value was “able to synergyse the anti-bacterial activity of β-lactam antibiotics”.

What about the IC50 [12] of the same compound?
The IC50 was 0.634 nM.

And the “level of antibacterial activity” value [13]?
The value was “good level of antibacterial activity”.
